The assay has as its target T1, recombinant c-Myc/Max (Homo sapiens, UniProt P01106+P61244).
T1 construct: made in house
Description: Electrophoretic mobility shift assay (EMSA): inhibitory activity on DNA binding of recombinant c-Myc/Max. The note with it: read-out: protein assay IC50. The procedure: 1) Preparation of Recombinant c-Myc and Max Proteins
Recombinant proteins were prepared as described in the following references: K. C. Jung et al., Fatty Acids, Inhibitors for the DNA Binding of c-Myc/Max Dimer, Suppress Proliferation and Induce Apoptosis of Differentiated HL-60 Human Leukemia Cell, Leukemia, 2006, 20(1), 122-7 or Kyung-Chae Jeong et al., Small-Molecule Inhibitors of c-Myc Transcriptional Factor Suppress Proliferation and Induce Apoptosis of Promyelocytic Leukemia Cell via Cell Cycle Arrest, Mol. BioSyst., 2010, 6, 1503-1509.
2) Electrophoretic Mobility Shift Assay (EMSA)
The inhibitory activity of each candidate compound on DNA binding of recombinant c-Myc/Max was measured using an electrophoretic mobility shift assay (EMSA). The ratio of protein-DNA complexes in each sample was evaluated by measuring band intensity. The oligonucleotides (E-box) corresponding to the consensus binding site of Myc/Max were dimerized through an annealing process. The protein mixture was incubated at room temperature for 5 minutes, and a DMSO solution containing each candidate compound was added thereto. The mixture was further incubated for 5 minutes, and the biotinylated DNA was added. To achieve a state of equilibrium, the final mixture was incubated at room temperature for 10 minutes. The protein-DNA complexes were separated from unbound free DNA by pre-electrophoresis using 8% polyacrylamide gel and 1×TBE buffer. After pre-electrophoresis, electrophoresis was performed at 120 V for 1 hour in 1×TBE buffer. Each band was visualized using HRP-conjugated streptavidin and an ECL solution, and band intensity was measured using image analysis software.
For orientation: Mobility shift assays separate free from complexed probe on a gel.

Consider 33 compounds from patent publication US9951021B2, “Compounds for inhibiting c-Myc/Max/DNA complex formation” (NATIONAL CANCER CENTER, priority 2016, dated 2018).

Structures are written as SMILES. pIC50: −log10 of the molar value.

T1 sequence (P01106 whole entry): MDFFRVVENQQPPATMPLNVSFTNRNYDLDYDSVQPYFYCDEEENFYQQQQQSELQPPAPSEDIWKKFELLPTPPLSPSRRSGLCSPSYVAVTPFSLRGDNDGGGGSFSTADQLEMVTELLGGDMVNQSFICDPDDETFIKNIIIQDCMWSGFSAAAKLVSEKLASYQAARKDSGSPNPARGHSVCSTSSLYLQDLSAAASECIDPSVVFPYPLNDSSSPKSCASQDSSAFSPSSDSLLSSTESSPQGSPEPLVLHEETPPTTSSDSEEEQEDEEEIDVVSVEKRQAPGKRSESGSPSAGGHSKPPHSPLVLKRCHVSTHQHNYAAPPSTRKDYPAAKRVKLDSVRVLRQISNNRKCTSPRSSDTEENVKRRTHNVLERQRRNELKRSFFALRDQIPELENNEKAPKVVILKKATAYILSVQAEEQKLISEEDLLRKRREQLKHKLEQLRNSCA
T1 sequence (P61244 whole entry): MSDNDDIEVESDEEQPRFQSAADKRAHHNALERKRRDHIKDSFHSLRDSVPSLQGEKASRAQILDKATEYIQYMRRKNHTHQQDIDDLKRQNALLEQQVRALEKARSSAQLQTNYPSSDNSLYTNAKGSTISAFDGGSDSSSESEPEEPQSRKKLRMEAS

With `CC(=O)c1c([S+]([O-])Cc2ccc(S(F)(F)(F)(F)F)cc2)[nH]c2c(Br)ccc(Cl)c2c1=O` (stereo not drawn) [Compound 68, 3-acetyl-8-bromo-5-chloro-2-((4-(pentafluoro-16-sulfanyl)benzyl)sulfinyl)quinolin-4(1H)-one], the pIC50 is greater than 6.00.
For `CC(=O)c1c([S+]([O-])Cc2ccc(C#N)cc2)[nH]c2c(Br)ccc(Cl)c2c1=O` (stereo not drawn) [Compound 73, 4-(((3-acetyl-8-bromo-5-chloro-4-oxo-1,4-dihydroquinolin-2-yl)sulfinyl)methyl)benzonitrile], the pIC50 is greater than 6.00.
In the case of `CC(=O)c1c([S+]([O-])Cc2cccnc2)[nH]c2c(Br)ccc(Cl)c2c1=O` (stereo not drawn) [Compound 84, 3-acetyl-8-bromo-5-chloro-2-((pyridin-3-ylmethyl)sulfinyl)quinolin-4(1H)-one], the pIC50 is greater than 6.00.
Consider `CC(=O)c1c([S+]([O-])Cc2cc(F)cc(F)c2)[nH]c2c(Br)ccc(Cl)c2c1=O` (stereo not drawn) [Compound 46, 3-acetyl-8-bromo-5-chloro-2-((3,5-difluorobenzyl)sulfinyl)quinolin-4(1H)-one], for which the negative logarithm of the IC50 (pIC50) was greater than 6.00.
As to `CC(=O)c1c([S+]([O-])Cc2ccc(S(F)(F)(F)(F)F)cc2F)[nH]c2c(Br)ccc(Cl)c2c1=O` (stereo not drawn) [Compound 69, 3-acetyl-8-bromo-5-chloro-2-((2-fluoro-4-(pentafluoro-16-sulfanyl)benzyl)sulfinyl)quinolin-4(1H)-one], the pIC50 was greater than 6.00.
For `CC(=O)c1c(SCc2cc(Cl)ccc2Cl)[nH]c2c(Br)ccc(Cl)c2c1=O` [Compound 43, 3-acetyl-8-bromo-5-chloro-2-((2,5-dichlorobenzyl)thio)quinolin-4(1H)-one] the value was greater than 6.00.
For `CC(=O)c1c([S+]([O-])Cc2cnc3[nH]ccc3c2)[nH]c2c(Br)ccc(Cl)c2c1=O` (stereo not drawn) [Compound 107, 2-(((1H-pyrrolo[2,3-b]pyridin-5-yl)methyl)sulfinyl)-3-acetyl-8-bromo-5-chloroquinolin-4(1H)-one], the negative-log IC50 (pIC50) was greater than 6.00.
The figure for `COC(=O)c1ccc(C[S+]([O-])c2[nH]c3c(Cl)ccc(Cl)c3c(=O)c2C(C)=O)cc1` (stereo not drawn) [Compound 91, methyl 4-(((3-acetyl-5,8-dichloro-4-oxo-1,4-dihydroquinolin-2-yl)sulfinyl)methyl)benzoate] is greater than 6.00.
Take `CC(=O)c1c([S+]([O-])Cc2ccc([S+]([O-])C(F)(F)F)cc2)[nH]c2c(Br)ccc(Cl)c2c1=O` (stereo not drawn) [Compound 64, 3-acetyl-8-bromo-5-chloro-2-((4-((trifluoromethyl)sulfinyl)benzyl)sulfinyl)quinolin-4(1H)-one]: the pIC50 is greater than 6.00.
Consider `COCSc1[nH]c2c(Br)ccc(Cl)c2c(=O)c1C(C)=O` [Compound 61, 3-acetyl-8-bromo-5-chloro-2-((methoxymethyl)thio)quinolin-4(1H)-one], for which the negative logarithm of the IC50 (pIC50) was greater than 6.00.
The figure for `COc1cc(S(F)(F)(F)(F)F)ccc1C[S+]([O-])c1[nH]c2c(Br)ccc(Cl)c2c(=O)c1C(C)=O` (stereo not drawn) [Compound 75, 3-acetyl-8-bromo-5-chloro-2-((2-methoxy-4-(pentafluoro-λ6-sulfanyl)benzyl)sulfinyl)quinolin-4(1H)-one] is greater than 6.00; for `CC(=O)c1c([S+]([O-])Cc2ccc(Cl)cc2)[nH]c2c(Br)ccc(Cl)c2c1=O` (stereo not drawn) [Compound 11, 3-acetyl-8-bromo-5-chloro-2-((4-chlorobenzyl)sulfinyl)quinolin-4(1H)-one] it is greater than 6.00.
For `CSc1c(C(C)=O)c(=O)c2c(Cl)ccc(Br)c2n1S(=O)(=O)c1ccc(C(C)(C)C)cc1` [Compound 40, 3-acetyl-8-bromo-1-((4-(tert-butyl)phenyl)sulfonyl)-5-chloro-2-(methylthio)quinolin-4(1H)-one] the value was greater than 6.00.
For `CC(=O)c1c([S+]([O-])c2ccccc2)[nH]c2c(Br)ccc(Cl)c2c1=O` (stereo not drawn) [Compound 13, 3-acetyl-8-bromo-5-chloro-2-(phenylsulfinyl)quinolin-4(1H)-one] the value was greater than 6.00; for `CSc1c(C(C)=O)c(=O)c2c(Cl)ccc(Br)c2n1C(C)=O` [Compound 18, 1,1′-(8-bromo-5-chloro-2-(methylthio)-4-oxoquinoline-1,3(4H)-diyl)bis(ethan-1-one)], greater than 6.00; for `CC(=O)c1c([S+](C)[O-])n(S(=O)(=O)c2ccc(C(C)(C)C)cc2)c2c(Br)ccc(Cl)c2c1=O` (stereo not drawn) [Compound 42, 3-acetyl-8-bromo-1-((4-(tert-butyl)phenyl)sulfonyl)-5-chloro-2-(methylsulfinyl)quinolin-4(1H)-one], greater than 6.00.
Regarding `CC(=O)c1c([S+]([O-])Cc2cc(Cl)ccc2Cl)[nH]c2c(Br)ccc(Cl)c2c1=O` (stereo not drawn) [Compound 44, 3-acetyl-8-bromo-5-chloro-2-((2,5-dichlorobenzyl)sulfinyl)quinolin-4(1H)-one], the pIC50 is greater than 6.00.
On to `CC(=O)c1c(Sc2ccccc2)[nH]c2c(Br)ccc(Cl)c2c1=O` [Compound 12, 3-acetyl-8-bromo-5-chloro-2-(phenylthio)quinolin-4(1H)-one], for which the pIC50 was greater than 6.00.
Regarding `O=C(c1ccccc1)c1c([S+]([O-])Cc2ccc(S(F)(F)(F)(F)F)cc2)[nH]c2c(F)ccc(F)c2c1=O` (stereo not drawn) [Compound 87, 3-benzoyl-5,8-difluoro-2-((4-(pentafluoro-λ6-sulfanyl)benzyl)sulfinyl)quinolin-4(1H)-one], the pIC50 is greater than 6.00.
In the case of `COc1ccccc1[S+]([O-])c1[nH]c2c(Br)ccc(Cl)c2c(=O)c1C(C)=O` (stereo not drawn) [Compound 15, 3-acetyl-8-bromo-5-chloro-2-((2-methoxyphenyl)sulfinyl)quinolin-4(1H)-one], the pIC50 was greater than 6.00.
The figure for `CC(=O)c1c(S(C)(=O)=O)n(S(=O)(=O)c2ccc(C(C)(C)C)cc2)c2c(Br)ccc(Cl)c2c1=O` [Compound 41, 3-acetyl-8-bromo-1-((4-(tert-butyl)phenyl)sulfonyl)-5-chloro-2-(methylsulfonyl)quinolin-4(1H)-one] is greater than 6.00.
For `CC(=O)c1c([S+]([O-])Cc2ccc(-n3cccn3)nc2)[nH]c2c(Br)ccc(Cl)c2c1=O` (stereo not drawn) [Compound 99, 2-(((6-(1H-pyrazol-1-yl)pyridin-3-yl)methyl)sulfinyl)-3-acetyl-8-bromo-5-chloroquinolin-4(1H)-one] the value was greater than 6.00; for `CC(=O)c1c([S+]([O-])Cc2cc(C)on2)[nH]c2c(F)ccc(F)c2c1=O` (stereo not drawn) [Compound 82, 3-acetyl-5,8-difluoro-2-(((5-methylisoxazol-3-yl)methyl)sulfinyl)quinolin-4(1H)-one], greater than 6.00.
For `CC(=O)c1c([S+]([O-])Cc2cccc(C#N)c2)[nH]c2c(Br)ccc(Cl)c2c1=O` (stereo not drawn) [Compound 28, 3-(((3-acetyl-8-bromo-5-chloro-4-oxo-1,4-dihydroquinolin-2-yl)sulfinyl)methyl)benzonitrile] the value was greater than 6.00; for `CC(=O)c1c([S+]([O-])Cc2ccccc2)n(C(=O)c2ccc(Br)cc2)c2c(Br)ccc(Cl)c2c1=O` (stereo not drawn) [Compound 20, 3-acetyl-2-(benzylsulfinyl)-8-bromo-1-(4-bromobenzoyl)-5-chloroquinolin-4(1H)-one], greater than 6.00; for `CC(=O)c1c(SCc2ccc([N+](=O)[O-])cc2)[nH]c2c(Br)ccc(Cl)c2c1=O` [Compound 32, 3-acetyl-8-bromo-5-chloro-2-((4-nitrobenzyl)thio)quinolin-4(1H)-one], greater than 6.00.
Take `CC(=O)c1c([S+]([O-])CN2C(=O)c3ccccc3C2=O)[nH]c2c(Cl)ccc(Cl)c2c1=O` (stereo not drawn) [Compound 90, 2-(((3-acetyl-5,8-dichloro-4-oxo-1,4-dihydroquinolin-2-yl)sulfinyl)methyl)isoindoline-1,3-dione]: the pIC50 is greater than 6.00.
Consider `COc1cccc(C[S+]([O-])c2[nH]c3c(Br)ccc(Cl)c3c(=O)c2C(C)=O)c1` (stereo not drawn) [Compound 55, 3-acetyl-8-bromo-5-chloro-2-((3-methoxybenzyl)sulfinyl)quinolin-4(1H)-one], for which the pIC50 was greater than 6.00.
For `CC(=O)c1c(S(=O)(=O)Cc2ccccc2)[nH]c2c(Br)ccc(Cl)c2c1=O` [Compound 34, 3-acetyl-2-(benzylsulfonyl)-8-bromo-5-chloroquinolin-4(1H)-one] the value was greater than 6.00; for `COCCNc1ccc(C[S+]([O-])c2[nH]c3c(Br)ccc(Cl)c3c(=O)c2C(C)=O)cn1` (stereo not drawn) [Compound 105, 3-acetyl-8-bromo-5-chloro-2-(((6-((2-methoxyethyl)amino)pyridin-3-yl)methyl)sulfinyl)quinolin-4(1H)-one], greater than 6.00; for `CSc1[nH]c2c(Br)ccc(Cl)c2c(=O)c1C(C)=O` [Compound 2, 3-acetyl-8-bromo-5-chloro-2-(methylthio)quinolin-4(1H)-one], greater than 6.00.
For `CC(=O)c1c([S+]([O-])Cc2ccc(C(F)(F)F)cc2)[nH]c2c(Br)ccc(Cl)c2c1=O` (stereo not drawn) [Compound 70, 3-acetyl-8-bromo-5-chloro-2-((4-(trifluoromethyl)benzyl)sulfinyl)quinolin-4(1H)-one], the pIC50 is greater than 6.00.
For `CC(=O)c1c(Sc2ccc(Br)cc2)[nH]c2c(Br)ccc(Cl)c2c1=O` [Compound 16, 3-acetyl-8-bromo-2-((4-bromophenyl)thio)-5-chloroquinolin-4(1H)-one] the value was greater than 6.00.

Broadly, the pIC50 is −log10 of the IC50, conventionally taken in molar units.
